Results from patent US12344610B2, “APOL1 inhibitors and methods of use” (Maze Therapeutics, Inc., priority 2022, dated 2025).

Experiments:
Assay type in all cases: cell-based
[1] = system: HEK293 cells overexpressing APOL1 G2; test: APOL1 G2 HEK293 cell rescue assay (reversal of cell death caused by overexpression of APOL1); settings: Homo sapiens, HEK293, HEK293 overexpressing APOL1 G2; geometric mean of at least 2 assay runs; † = single assay run
Method in brief: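 Each compound tested in duplicate wells on one plate per run, with values usually the geometric mean across at least two runs on different days, occasionally from one run only. Read-out: concentration giving half-maximal rescue of APOL1 G2 overexpression-induced death of HEK293 cells.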

[2] = system: Trypanosoma brucei Lister 427 VSG221 with APOL1 G2 recombinant protein; test: APOL1 G2 trypanosome cell rescue assay (Example B5); settings: Trypanosoma brucei, 20 h, read-out: APOL1 G2 Trypanosome Rescue EC50, Trypanosoma brucei Lister 427 VSG221 with APOL1 G2 recombinant protein, 20 hours, CellTiter-Glo; geometric mean of at least 2 assay runs; † = single assay run
Method: (§1) APOL1 G0/G1/G2 viability assay for measurement of cytotoxicity reversal by compound in trypanosomes (APOL1 G0/G1/G2 trypanosome cell rescue assay).
(§2) APOL1 protein expression and purification. The mature from of APOL1 proteins, residues 28-398, were expressed from a pET28a vector with an N-terminal His-tag and TEV cleavage site. Proteins were expressed in Escherichia coli BL21-CodonPlus (DE3)-RIPL cells. Liter cultures of terrific broth were grown at 37° C. until an OD600 of ˜0.8 was reached and then induced with isopropyl β-D-1-thiogalactopyranoside (IPTG; final concentration of 500 μM). Afterwards, cultures were grown for 3 hours at 37° C. For protein purification, cell pellets were resuspended in lysis buffer (50 mM Tris, pH 8.5, 5 mM EDTA, 0.5 mM DTT, 0.5 mM PMSF) supplemented with a cocktail of protease inhibitors. Cells were lysed by sonication, centrifuged, and the resulting pellet was collected. The homogenized pellet was resuspended in wash buffer (50 mM Tris, pH 8.5, 0.5 M NaCl, 5 mM EDTA, 0.5 mM DTT, 0.5 mM PMSF, protease inhibitor cocktail) and collected by centrifugation. Inclusion body dissolution was then conducted as previously reported (PNAS 112(9) (2015) 2894-2899; www.pnas.org/cgi/doi/10.1073/pnas.1421953112; herein incorporated by reference in its entirety). The solubilized APOL1 protein was applied to a nickel column (HisTrap, GE Life Sciences) preequilibrated in buffer A (50 mM Tris, pH 8.5, 0.15 M NaCl, 1% zwittergent 3-14, protease inhibitor cocktail). The resin was washed with buffer B (50 mM Tris, pH 8.5, 0.15 M NaCl, 0.1% DDM) and TEV cleavage was conducted on column overnight. Afterwards, the column was washed with buffer B, followed by His-washing buffer (50 mM Tris, pH 8.5, 0.15 M NaCl, 0.1% DDM, 10 mM imidazole). The protein was then removed from the resin using His-elution buffer (50 mM Tris, pH 8.5, 0.15 M NaCl, 0.1% DDM, 250 mM imidazole). The sample was further purified by size exclusion chromatography using a Superdex 200 Increase column (GE Life Sciences) in 50 mM Tris, pH 8.5, 0.15 M NaCl, and 0.1% DDM buffer. All APOL1 proteins (G0, G1, and G2) were generated at Viva Biotech (Shanghai) Ltd.
(§3) Modified HMI-9 media preparation (https://tryps.rockefeller.edu/trypsru2_culture_media_preparation.html; herein incorporated by reference in its entirety). Trypanosomes were cultured in modified HMI-9 media consisting of IMDM (ThermoFisher, 12440053), 10% heat-inactivated FBS (Gibco, 10082-147), 10% Serum Plus (Sigma-Aldrich, 14008C), 1×HMI-9 supplement stock, and 1% hypoxanthine stock. The 10×HMI-9 supplement stock was made by dissolving 280 mg bathocuproine disulfonic acid (Sigma-Aldrich, 146625), 1820 mg cysteine (add after bathocuproine) (Sigma-Aldrich, 30089), 1100 mg pyruvic acid (Sigma-Aldrich, 107360), 100 mg uracil (Sigma-Aldrich, U0750), 100 mg cytosine (Sigma-Aldrich, C3506) and 140 μL 2-mercaptoethanol (Sigma-Aldrich, M3148) in 1000 mL of water. The resulting solution was aliquoted and stored at −20° C. The hypoxanthine stock was made by dissolving 4 g of NaOH into 1000 mL of water. Afterwards, 13.6 g hypoxanthine (Sigma-Aldrich, H9377) was added to this mixture. The resulting solution was aliquoted and stored at −20° C.
(§4) Assay Setup. Trypanosoma brucei Lister 427 VSG221 (ATCC, PRA-382) cells were cultured in modified HMI-9 media. All experiments were performed in 384-well, white, solid bottom, tissue culture treated plates (Greiner, 781080). Assay ready plates were generated with duplicate 11-point compound dilution series that consisted of 2-fold stepwise dilutions (0.4% DMSO final). To each well, was added 20 μL of 2 μg/mL of APOL1 G0, G1, or G2 recombinant protein in modified HMI-9 media using a MultiDrop Combi (final APOL1 protein concentration=[…]). Trypanosomes were counted using a hemacytometer and diluted in modified HMI-9 media to a concentration of 1.25×10^4 cell/mL. […]

[3] = system: Trypanosoma brucei Lister 427 VSG221 with APOL1 G0 recombinant protein; test: APOL1 G0 trypanosome cell rescue assay (Example B5); settings: Trypanosoma brucei, 20 h, read-out: APOL1 G0 Trypanosome Rescue EC50, Trypanosoma brucei Lister 427 VSG221 with APOL1 G0 recombinant protein, 20 hours, CellTiter-Glo; geometric mean of at least 2 assay runs; † = single assay run
Method: as §1, §2, §3, §4

[4] = system: HEK293 clonal cell line overexpressing APOL1 G1; test: APOL1 G1 HEK293 cell rescue assay (Example B3); settings: Homo sapiens, HEK293, HEK293 clonal line overexpressing APOL1 G1; geometric mean of at least 2 runs; † = single run; ¥ = concentration at 50% rescue estimated (no sigmoidal curve)
Method in brief: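 Rescue of cell death caused by APOL1 G1 overexpression was measured in a clonal HEK293 line. Compounds were tested in duplicate on one plate, and EC50s were geometric means across at least two runs on different days. Some values are estimated 50%-rescue concentrations where curve fitting failed.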

[5] = system: Trypanosoma brucei Lister 427 VSG221 with APOL1 G1 recombinant protein; test: APOL1 G1 trypanosome cell rescue assay (Example B5); settings: Trypanosoma brucei, 20 h, read-out: APOL1 G1 Trypanosome Rescue EC50, Trypanosoma brucei Lister 427 VSG221 with APOL1 G1 recombinant protein, 20 hours, CellTiter-Glo; geometric mean of at least 2 assay runs; † = single assay run
Method: as §1, §2, §3, §4

SMILES	EC50 [1] [nM]	EC50 [2] [nM]	EC50 [3] [nM]	EC50 [4] [nM]	EC50 [5] [nM]
C[C@]1(O)C[C@@H](n2cnc3cc(OCCN4CCC5(CC4)C(=O)Nc4ccc(Cl)cc45)cnc32)C1 [Compound 367, 5-chloro-1′-[2-({3-[(cis)-3-hydroxy-3-methylcyclobutyl]-3H-imidazo[4,5-b]pyridin-6-yl}oxy)ethyl]-1,2-dihydrospiro[indole-3,4′-piperidin]-2-one]	87.7	106	231	145	323
C[C@]1(O)C[C@@H](N2C(=O)CCc3cc(OCCN4CCC5(CC4)C(=O)Nc4ccc(C#N)cc45)cnc32)C1 [Compound 404, 2-oxo-1′-[2-({7-oxo-8-[(cis)-3-hydroxy-3-methylcyclobutyl]-5,6,7,8-tetrahydro-1,8-naphthyridin-3-yl}oxy)ethyl]-1,2-dihydrospiro[indole-3,4′-piperidine]-5-carbonitrile]	129	210	425	247	554
CC1(O)CN(c2ncc(OCCN3CCC4(CC3)C(=O)Nc3ccc(Cl)cc34)cc2C(F)(F)F)C1 [Compound 405, 5-chloro-1′-(2-{[6-(3-hydroxy-3-methylazetidin-1-yl)-5-(trifluoromethyl)pyridin-3-yl]oxy}ethyl)-1,2-dihydrospiro[indole-3,4′-piperidin]-2-one]	9.59	8.06	20	19.2	21.6
C[C@]1(O)C[C@@H](n2c(=O)ccc3cc(OCCN4CCC5(CC4)C(=O)Nc4ccc(C#N)cc45)cnc32)C1 [Compound 406, 2-oxo-1′-[2-({7-oxo-8-[(cis)-3-hydroxy-3-methylcyclobutyl]-7,8-dihydro-1,8-naphthyridin-3-yl}oxy)ethyl]-1,2-dihydrospiro[indole-3,4′-piperidine]-5-carbonitrile]	58.3	51.1	107	109	128
CC1(O)CC(n2ncc3cc(OCCN4CCC5(CC4)C(=O)Nc4ccc(Cl)cc45)cnc32)C1 (stereo not drawn) [Compound 407, 5-chloro-1′-(2-{[1-(3-hydroxy-3-methylcyclobutyl)-1H-pyrazolo[3,4-b]pyridin-5-yl]oxy}ethyl)-1,2-dihydrospiro[indole-3,4′-piperidin]-2-one]	24.1	33	72.4	46.3	99.7
CC1(C)OCC(c2ncc(OCCN3CCC4(CC3)C(=O)Nc3ccc(Cl)cc34)cn2)O1 (stereo not drawn) [Compound 441, 5-chloro-1′-(2-{[2-(2,2-dimethyl-1,3-dioxolan-4-yl)pyrimidin-5-yl]oxy}ethyl)-1,2-dihydrospiro[indole-3,4′-piperidin]-2-one]	57.4	78.3	144	96.1	215
C[C@]1(O)C[C@@H](c2nc3cc(OCCN4CCC5(CC4)C(=O)Nc4ccc(Cl)cc45)cc(C(F)(F)F)c3[nH]2)C1 [Compound 466, 5-chloro-1′-[2-({2-[(cis)-3-hydroxy-3-methylcyclobutyl]-7-(trifluoromethyl)-1H-1,3-benzodiazol-5-yl}oxy)ethyl]-1,2-dihydrospiro[indole-3,4′-piperidin]-2-one]	4.26	11.9	19.4	8.71	30.6
C[C@]1(O)C[C@@H](n2c(=O)n(CO)c3cc(OCCN4CCC5(CC4)C(=O)Nc4ccc(Cl)cc45)cc(C(F)(F)F)c32)C1 [Compound 467, 5-chloro-1′-(2-{[3-(hydroxymethyl)-2-oxo-1-[(cis)-3-hydroxy-3-methylcyclobutyl]-7-(trifluoromethyl)-2,3-dihydro-1H-1,3-benzodiazol-5-yl]oxy}ethyl)-1,2-dihydrospiro[indole-3,4′-piperidin]-2-one]	4.74	2.24	3.74	14.3	6.03
C[C@]1(O)C[C@@H](n2c(=O)n(CO)c3cc(OCCN4CCC5(CC4)C(=O)Nc4ccc(C#N)cc45)cc(C(F)(F)F)c32)C1 [Compound 469, 1′-(2-{[3-(hydroxymethyl)-2-oxo-1-[(cis)-3-hydroxy-3-methylcyclobutyl]-7-(trifluoromethyl)-2,3-dihydro-1H-1,3-benzodiazol-5-yl]oxy}ethyl)-2-oxo-1,2-dihydrospiro[indole-3,4′-piperidine]-5-carbonitrile]	19.9	5.33	9.76	48.7	15.5
